Test results taken from the CheMixHub viscosity set.
± gives the uncertainty stated by the source.

Test: xn = mol fraction of the nth substance listed

[Cl-].[Cl-].[Sr+2] + O
Details	viscosity [mPa·s]
293.15 K, 100 kPa, x1 = 0.0048	1.08 ± 0.036
293.15 K, 100 kPa, x1 = 0.01	1.172 ± 0.038
293.15 K, 100 kPa, x1 = 0.016	1.283 ± 0.042
293.15 K, 100 kPa, x1 = 0.0302	1.607 ± 0.053
293.15 K, 100 kPa, x1 = 0.0452	2.065 ± 0.068
293.15 K, 101.3 kPa, x1 = 0.0009	1.018 ± 0.022
293.15 K, 101.3 kPa, x1 = 0.0018	1.032 ± 0.022
293.15 K, 101.3 kPa, x1 = 0.00893	1.146 ± 0.024
293.15 K, 101.3 kPa, x1 = 0.0177	1.312 ± 0.028
293.15 K, 101.3 kPa, x1 = 0.02631	1.515 ± 0.032
293.15 K, 101.3 kPa, x1 = 0.03478	1.722 ± 0.036
293.15 K, 101.3 kPa, x1 = 0.0431	1.994 ± 0.042
298.15 K, 100 kPa, x1 = 0.0048	0.9628 ± 0.032
298.15 K, 100 kPa, x1 = 0.01	1.048 ± 0.034
298.15 K, 100 kPa, x1 = 0.016	1.152 ± 0.038
298.15 K, 100 kPa, x1 = 0.0302	1.447 ± 0.047
298.15 K, 100 kPa, x1 = 0.0452	1.862 ± 0.061
298.15 K, 101.3 kPa, x1 = 0.0009	0.9055 ± 0.019
298.15 K, 101.3 kPa, x1 = 0.0018	0.9188 ± 0.02
298.15 K, 101.3 kPa, x1 = 0.00893	1.025 ± 0.022
298.15 K, 101.3 kPa, x1 = 0.0177	1.179 ± 0.025
298.15 K, 101.3 kPa, x1 = 0.02631	1.364 ± 0.029
298.15 K, 101.3 kPa, x1 = 0.03478	1.552 ± 0.033
298.15 K, 101.3 kPa, x1 = 0.0431	1.797 ± 0.038
303.15 K, 101.3 kPa, x1 = 0.0009	0.8117 ± 0.017
303.15 K, 101.3 kPa, x1 = 0.0018	0.8241 ± 0.017
303.15 K, 101.3 kPa, x1 = 0.00893	0.9228 ± 0.02
303.15 K, 101.3 kPa, x1 = 0.0177	1.065 ± 0.023
303.15 K, 101.3 kPa, x1 = 0.02631	1.236 ± 0.026
303.15 K, 101.3 kPa, x1 = 0.03478	1.408 ± 0.03
303.15 K, 101.3 kPa, x1 = 0.0431	1.63 ± 0.034
308.15 K, 101.3 kPa, x1 = 0.0009	0.7325 ± 0.015
308.15 K, 101.3 kPa, x1 = 0.0018	0.7443 ± 0.016
308.15 K, 101.3 kPa, x1 = 0.00893	0.8365 ± 0.018
308.15 K, 101.3 kPa, x1 = 0.0177	0.9688 ± 0.02
308.15 K, 101.3 kPa, x1 = 0.02631	1.127 ± 0.024
308.15 K, 101.3 kPa, x1 = 0.03478	1.284 ± 0.027
308.15 K, 101.3 kPa, x1 = 0.0431	1.487 ± 0.031
313.2 K, 100 kPa, x1 = 0.0302	1.096 ± 0.036
313.56 K, 100 kPa, x1 = 0.0048	0.7071 ± 0.023
313.9 K, 100 kPa, x1 = 0.01	0.7701 ± 0.025
314.54 K, 100 kPa, x1 = 0.0452	1.374 ± 0.045
315.86 K, 100 kPa, x1 = 0.016	0.8261 ± 0.027
318.15 K, 101.3 kPa, x1 = 0.0009	0.6082 ± 0.013
318.15 K, 101.3 kPa, x1 = 0.0018	0.6186 ± 0.013
318.15 K, 101.3 kPa, x1 = 0.00893	0.6997 ± 0.015
318.15 K, 101.3 kPa, x1 = 0.0177	0.8151 ± 0.017
318.15 K, 101.3 kPa, x1 = 0.02631	0.9514 ± 0.02
318.15 K, 101.3 kPa, x1 = 0.03478	1.086 ± 0.023
318.15 K, 101.3 kPa, x1 = 0.0431	1.258 ± 0.026

[K+].[O-][Cl+2]([O-])[O-] + O
viscosity [mPa·s], 100 kPa
Details	293.15 K	298.15 K	303.15 K	308.15 K	313.15 K	318.15 K
x1 = 0.000182	0.995 ± 0.031	0.888 ± 0.028	0.799 ± 0.025	0.725 ± 0.022	0.661 ± 0.02	0.607 ± 0.019
x1 = 0.0018	0.984 ± 0.03	0.878 ± 0.027	0.789 ± 0.024	0.717 ± 0.022	0.655 ± 0.02	0.602 ± 0.019
x1 = 0.003608	0.979 ± 0.03	0.874 ± 0.027	0.788 ± 0.024	0.717 ± 0.022	0.656 ± 0.02	0.603 ± 0.019
x1 = 0.005413	0.977 ± 0.03	0.873 ± 0.027	0.788 ± 0.024	0.718 ± 0.022	0.656 ± 0.02	0.604 ± 0.019
x1 = 0.00717	0.977 ± 0.03	0.876 ± 0.027	0.791 ± 0.024	0.72 ± 0.022	0.659 ± 0.02	0.608 ± 0.019
x1 = 0.008941	0.983 ± 0.03	0.881 ± 0.027	0.797 ± 0.025	0.725 ± 0.022	0.665 ± 0.021	0.613 ± 0.019
